# Measured values reported in patent US20070099822A1, “Regulation of tissue mineralization and phosphate metabolism by asarm peptides” (priority 2003, published 2007).
# “And” between values parts separate entries of the source, which are not always exact repeats. Identical values can stand only once. “Also recorded” adds a separate entry of the source.
# Assays:
# mice [1] = experiment: Example II: subcutaneous injection twice a day for three weeks, serum and urine; type: in vivo; conditions: for serum phosphate: three weeks, vehicle 9.62; for serum calcium vs vehicle / serum alkaline phosphatase vs vehicle: etidronate 60 mg/kg/day; for serum alkaline phosphatase vs vehicle: ASARM 1.3 and 4 mg/kg/day (both groups); for % FEP vs control: two injections per day over three weeks, ASARM 1.34 and 4.00 mg/kg/day
# Protocol: Four groups of 7 mice were injected subcutaneously twice a day for three weeks. The first group received vehicle only as a control, the second group received etidronate at 60 mg/kg/day, the third group received ASARM peptide at 1.3 mg/kg/day (“low ASARM”), and the fourth group received ASARM peptide at 4 mg/kg/day (“high ASARM”). Calcein/tetracycline was administered to the animals 4 days and 2 days before the end of the protocol for visualization purposes.
# (§1) FIGS. 14a and 14b show the Fractional Excretion of Phosphate (FEP) in two different experiments. In the experiment shown in FIG. 14a, each of three groups of mice was treated with one injection per day, over two weeks, of either: (a) vehicle alone, (b) etidronate (10 mg/kg/day), or (c) ASARM peptide (2 mg/kg/day). In the experiment show in FIG. 14b, each of four groups of mice was treated with two injections per day, over three weeks, of either: (a) vehicle alone, (b) etidronate (60 mg/kg/day), (c) ASARM (1.34 mg/kg/day; “ASARM-low”), or (d) ASARM (4.00 mg/kg/day; “ASARM-high”).
# male ICR Swiss mice = experiment: Example VI: subcutaneous PO4-ASARM-peptide or etidronate, calcein fluorescence and Sanderson osteoid staining; type: in vivo
# Protocol: Subcutaneous administration of PO4-ASARM-peptide, etidronate (EHDP), and calcein. Three separate groups of male ICR Swiss mice (4-5 weeks) were subcutaneously injected once a day (9:00AM), for 12 days except for days 6 and 7 with 50 μL solutions of either (1) Eitidronate (EHDP) (10 mg/kg/day); (2) PO4-ASARM-peptide (2 mg/kg/day); or (3) vehicle consisting of 5 mM HEPES pH 7.4/150 mM NaCL/0.1% BSA. The synthetic PO4-ASARM-peptide was dissolved in vehicle (1.0 mg/mL). Etidronate was first dissolved in 150 mM NaCl and then buffered to pH 7.5 with 1M NaOH to give a 5 mg/mL solution. The 10 mg/kg/day doses of etidronate have previously been reported to inhibit mineralization in rats and were used as positive controls (Trechsel, et al., Am J Physiol 232(3):E298-305, 1977; Bonjour, et al., Am J Physiol 229(2):402-8, 1975). All three groups were subcutaneously injected with calcein (20 mg/kg/day) on days 3, 5, […]. The degree of calcein fluorescence and/or fluorescence-quenching is an indicator of mineralization status (see next section). The calcein injections when given were administered 1 h after the daily injections of PO4-ASARM-peptide, EHDP or vehicle. Animals were then terminated humanely and calvariae plus femurs/tibia were fixed in 70% ethanol (non-decalcified). After fluorescence imaging (see FIG. 35) calvariae were processed in plastic and stained with Sanderson's stain (see below). Five animals per group were used for statistical analysis of fluorescence quenching and histological Sanderson staining.
# Calcein fluorescence in mice calvariae, hind-limbs & fluor-imager analysis of mineralization. A Bio-Rad (Hercules, Calif.) FluorImager^max fluorescent imager was used to simultaneously image all the samples from each of the 3 groups (15 animals; five animals per group). This consisted of 10 tibia/femurs and 5 calvariae per group. Samples were placed on top of the FluorImager plate contained within a light-tight box. Ultra-violet light was used to generate calcein-mediated epi-fluorescence and the fluorescent-image was captured on a −40° C., peltier-cooled, 1,340×1040 pixel CCD resolution, CCD digital-camera. Quantitation of fluorescence was carried out using Quantity-1 (Bio-Rad, Hercules, Calif.) fluorescence-software. Pixel saturation was prevented by internal software calibration and exposure adjustment. All fluorescence readings were thus accurately quantitative and non-saturating. Photo-micrographic UV fluorescent analysis of calvarial cross sections embedded in plastic and mounted as slides (<100 micrometer sections) was also undertaken and a description of the fixation and processing is given in the next section.
# Sanderson-staining and fluorescence detection of calvarial osteoid & mineralized bone. Staining of non-decalcified calvarial sections was performed using the method described by Sanderson and Bachus (Staining technique to differentiate mineralized and demineralized bone in ground sections, J Histotechnol 20(2): 119-122, 1997). This technique provides differential staining between unmineralized osteoid and mineralized bone. Prior to staining, calvariae were dissected and attached tissue removed. Calvariae were then placed in 70% ethanol for further fixation as described by Sanderson and Bachus (supra). After fixing and processing undecalcified calvariae were embedded in plastic (LR-white acrylic resin (London Resin Co., Reading, England)) as previously described (Garrett, et al., Selective inhibitors of the osteoblast proteasome stimulate bone formation in vivo and in vitro, J Clin Invest 111(11):1771-1782, 2003). Plastic embedded sections were ground to <100 micrometers using a specialized grinding-pestle as described by Donath and Breuner (A method for the study of undecalcified bones and teeth with attached soft tissues. The Sage-Schliff (sawing and grinding) technique, J Oral Pathol 11(4):318-26, 1982). […]
# mice [2] = experiment: Example III: subcutaneous injection once a day for 12 days, mineralization and phosphate handling; type: in vivo; conditions: ASARM peptide 2 mg/kg/day; for Phosphate Excretion Index (PEI) / increase in urinary calcium levels compared to the control / inhibition in tooth mineralization / inhibition of mineralization in femur / inhibition of mineralization in tibia/femur / mineralization of calvariae and long bones / renal phosphorous clearance vs vehicle / serum calcium vs control / serum phosphate / tubular reabsorption of phosphate vs vehicle / urinary phosphate excreted in a 24-hour period vs control / urine creatinine / urine phosphate / Fractional Excretion of Phosphate (FEP) vs vehicle / inhibition of mineralization of calvariae: etidronate 10 mg/kg/day; for Fractional Excretion of Phosphate (FEP) vs vehicle / inhibition of mineralization of calvariae: s.c. once a day 12 days; for inhibition of mineralization of calvariae: calcein
# Protocol: as §1
# Three groups of 5 mice each received a subcutaneous injection once a day for 12 days. […] Calcein was given at 20 mg/kg/day on days 3, 5, 8, and 10 to allow visualization. The first group of mice were given an injection of vehicle only. The second group of mice were given etidronate at 10 mg/kg/day. The third group of mice were given ASARM peptide at 2 mg/kg/day.
# MEPE-PHEX interaction = biological target: T1, MEPE-PHEX interaction (Homo sapiens, UniProt P78562); experiment: Surface plasmon resonance, peptide solution competition of secPHEX-MEPE binding; conditions: peptide pre-mixed with secPHEX, MEPE-RGD up to 85 μM
# T1 construct: to generate a soluble, secreted form of PHEX; made in house; host or cells: secPHEX: mammalian cells (gift, University of Montreal); MEPE: S. frugiperda insect cells
# T1 sequence (P78562 46-749 limits assumed): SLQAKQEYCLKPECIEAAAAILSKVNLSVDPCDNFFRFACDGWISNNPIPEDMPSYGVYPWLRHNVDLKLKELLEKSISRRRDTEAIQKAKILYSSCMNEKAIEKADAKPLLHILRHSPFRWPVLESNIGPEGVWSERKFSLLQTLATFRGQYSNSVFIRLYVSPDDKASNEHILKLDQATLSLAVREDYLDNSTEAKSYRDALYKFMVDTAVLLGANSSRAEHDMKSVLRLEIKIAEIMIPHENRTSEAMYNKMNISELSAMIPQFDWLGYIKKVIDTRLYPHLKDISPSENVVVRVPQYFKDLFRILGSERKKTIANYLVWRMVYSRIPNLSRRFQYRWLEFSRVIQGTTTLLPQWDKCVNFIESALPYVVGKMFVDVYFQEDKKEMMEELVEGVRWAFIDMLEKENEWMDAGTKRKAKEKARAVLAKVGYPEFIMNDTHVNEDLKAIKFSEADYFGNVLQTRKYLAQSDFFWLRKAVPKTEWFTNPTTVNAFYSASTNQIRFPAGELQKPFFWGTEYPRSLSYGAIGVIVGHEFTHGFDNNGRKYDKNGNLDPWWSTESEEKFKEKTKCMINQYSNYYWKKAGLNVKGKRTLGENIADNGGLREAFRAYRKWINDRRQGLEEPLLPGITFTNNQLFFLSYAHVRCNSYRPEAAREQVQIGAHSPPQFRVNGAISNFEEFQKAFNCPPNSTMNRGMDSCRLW
# Excerpt: Surface Plasmon Resonance: Synthetic peptides & competitive PHEX-MEPE binding studies. For these experiments CM-5 chips containing flow-cells immobilized with MEPE, PHEX and IgG ligands at 6000 RU were used. Just prior to SPR injection, stock solution of specific-peptide (as defined for each experiment; see Table 1), and dissolved in analyte buffer (HBS-P—Zn) […] The following equation was used to compute KDapp values: RU=Bmax/inhib×(peptide(μM))/KDapp+(peptide(μM)). The Bmax/inh value represents the maximal percentage inhibition change in RU (i.e., PHEX-MEPE binding) relative to the “non-peptide” control (0% inhibition of binding), using a constant analyte flow-solution of secPHEX of 250 nM against immobilized MEPE ligand at 6000 RU. […] The control MEPE-RGD peptide had no effect on MEPE-PHEX interactions.
# [3] = PO4-ASARM-peptide 2 mg/kg/day, etidronate 10 mg/kg/day
Compound,serum calcium vs vehicle (mice [1]; ASARM 1.3 and 4 mg/kg/day),serum alkaline phosphatase vs vehicle (mice [1]),increase in urinary calcium levels compared to the control (mice [2]),inhibition in tooth mineralization (mice [2]),inhibition of mineralization in femur (mice [2]),inhibition of mineralization in tibia/femur (mice [2]),mineralization of calvariae and long bones (mice [2]),serum calcium vs control (mice [2]),tubular reabsorption of phosphate vs vehicle (mice [2]),urinary phosphate excreted in a 24-hour period vs control (mice [2]),urine creatinine (mice [2]),urine phosphate (mice [2]),Fractional Excretion of Phosphate (FEP) vs vehicle (mice [2]),inhibition of mineralization of calvariae (mice [2]),other results
"CC(O)(P(=O)(O)O)P(=O)(O)O [etidronate, reference compound]",lower serum calcium levels,significantly higher levels,75.9%,53.2%,15.8%,19.2%,greatly inhibited,slightly higher level,higher,far less phosphate,significant elevation; also recorded: significantly elevated,induced hypophosphaturia,significantly lower,48.4%,"serum phosphate (mice [1]; etidronate 60 mg/kg/day s.c. twice a day): 10.04 mg/dL; increase of osteoid layer thickness relative to vehicle (male ICR Swiss mice; [3]): 2.35 fold; percentage quenching of calvarial calcein fluorescence relative to vehicle (male ICR Swiss mice; [3]): 48% and 48.4%; calvariae calcein fluorescence (male ICR Swiss mice; PO4-ASARM-peptide 2 mg/kg/day, etidronate 10 mg/kg/day, s.c. 12 days, vehicle 1100.5): 417.7 fluorescent intensity units; calvarial osteoid relative thickness (Sanderson staining) (male ICR Swiss mice; PO4-ASARM-peptide 2 mg/kg/day, etidronate 10 mg/kg/day, vehicle 2.3): 5.4; lamellar calcein fluorescent layers in calvarial cross-sections (male ICR Swiss mice; four layers visible in vehicle group): complete absence; Phosphate Excretion Index (PEI) (mice [2]): lower PEI; renal phosphorous clearance vs vehicle (mice [2]): significantly less phosphate clearance; serum phosphate (mice [2]): induce hyperphosphatemia"
ASARM peptide: ASARM peptide injected subcutaneously in Examples II and III; sequence and phosphorylation not stated; data resemble PO4-ASARM-peptide of Example VI (RDDSSESSDSGSSSESDGD),lower serum calcium levels,levels similar to that of the vehicle; also recorded: levels similar to that of the control,56.3%,35.3%,44.6%,24.4%,mineralization was inhibited,did not show a significantly elevated level,higher,far less phosphate,significant elevation; also recorded: significantly elevated,induced hypophosphaturia,significantly lower; also recorded: decreased,62.0%,"urinary phosphate excretion over 24 hours vs etidronate and control groups (mice [1]; ASARM 1.3 and 4 mg/kg/day): significantly higher; serum phosphate (mice [1]; ASARM high, 4 mg/kg/day s.c. twice a day): 10.01 mg/dL; serum phosphate (mice [1]; ASARM low, 1.3 mg/kg/day s.c. twice a day): 10.60 mg/dL; % FEP vs control (mice [1]): increase in FEP; % FEP vs control (mice [1]; listed as ASARM): much higher % FEP levels; serum alkaline phosphatase vs etidronate or vehicle groups (mice [2]): lower levels; Phosphate Excretion Index (PEI) (mice [2]; listed as ASARM): much lower PEI; mineralization of calvariae and long bones (mice [2]; listed as ASARM): greatly inhibited; renal phosphorous clearance vs vehicle (mice [2]; listed as ASARM): significantly less phosphate clearance; serum phosphate (mice [2]; listed as ASARM): induced hyperphosphatemia; urinary phosphate excreted in a 24-hour period vs control (mice [2]; listed as ASARM): far less; urine phosphate (mice [2]; listed as ASARM): hypophosphaturia; % FEP vs control (mice [2]; one injection per day over two weeks): significantly lower % FEP; also recorded: decrease in FEP"
"GSGYTDLQERGDNDISPFSGDGQPF (Homo sapien) [MEPE-RGD, 15, negative control, reference compound]",,,,,,,,,,,,,,,inhibition of MEPE-PHEX interaction (MEPE-PHEX interaction): did not competitively inhibit; also recorded: no effect; inhibition of MEPE-PHEX interaction (MEPE-PHEX interaction; listed as MEPE-RGD-peptide): no inhibition
